Experimental findings from patent publication US10221139B2, “Inhibitors of histone demethylases” (Gilead Sciences, Inc., priority 2012, dated 2019) are described below.

This test deals with demethylation of H3K4 (H3K4me3 mark) in U2OS cells. The experiment in a line: Histone lysine demethylase immunofluorescence assay, non-transfected U2OS cells (H3K4me3 staining). It is filed as cell-based. Particulars: Homo sapiens, 20 hours. On the procedure:
Histone Lysine Demethylase Immunofluorescence Assays for IC50 Value Determination, Non-Transfected Cells
U2OS cells were harvested and seeded into multi well plates into media containing compound. The media used was DMEM containing 5% FBS and pen/strep. 20 hours after incubation of cells with compounds, the cells were washed once in PBS, harvested by fixation with formaldehyde 4% aqueous solution, and washed 2 times in PBS. Subsequently, the cells were permeabilized in PBS with 0.2% Triton X-100 for 10 min at room temperature. Blocking was performed in PBS with 0.2% Triton X-100 and 5% FBS for 45 min at room temperature. The cells were incubated with αH3K4me3 primary antibody (Cell Signaling, #9751S) diluted 1:1000 in blocking solution over night at 4° C. After incubation with primary antibody, the cells were washed 3 times with PBS, incubated with secondary antibody diluted 1:1000 (Alexa fluor 594 goat anti rabbit IgG, Invitrogen, A11012) and Hoechst, 20 μg/ml (Sigma, 33342) in blocking solution, and washed again 3 times with PBS. Finally, PBS was added and high throughput imaging and analysis were performed by an IN Cell Analyzer 1000 (GE Healthcare). The IC50 values seen in Table 4 were based on an average measure of the staining of the H3K4me3 mark in cells.
As for `CCN(CC)CCCCNCc1cc(C(=O)Oc2c(OC)cccc2OC)ccn1` [drawing 232, 2,6-dimethoxyphenyl 2-({[4-(diethylamino)butyl]amino}methyl) pyridine-4-carboxylate], the IC50 was less than 1 µM.
For the molecule `CCN(CCN(C)C)C(=O)CNCc1cc(C(=O)Oc2ccc(OC)cc2)ccn1` [drawing 234, 4-methoxyphenyl 2-{[({[2-(dimethylamino)ethyl](ethyl)carbamoyl}methyl)amino]methyl}pyridin-4-carboxylate], the IC50 was less than 1 µM.
The figure for `CCOC(=O)c1ccccc1OC(=O)c1ccnc(CNCC(=O)N(CC)CCN(C)C)c1` [drawing 235, 2-(ethoxycarbonyl)phenyl 2-{[({[2-(dimethylamino)ethyl](ethyl)carbamoyl}methyl)amino]methyl}pyridine-4-carboxylate] is less than 1 µM; for `CCOC(=O)N(C)c1ccc(COC(=O)c2ccnc(CNCCCCN(CC)CC)c2)cc1` [drawing 236] it is less than 1 µM.
In turn, `CCN(CCN(C)C)C(=O)CNCc1cc(C(=O)Oc2ccc(C(C)(C)C)cc2)ccn1` [drawing 237, 4-tert-butylphenyl 2-{[({[2-(dimethylamino)ethyl](ethyl)carbamoyl}methyl)amino]methyl}pyridine-4-carboxylate] returned an IC50 of less than 1 µM.
In the case of `CCN(CCN(C)C)C(=O)CNCc1cc(C(=O)OC(C)CC(C)=O)ccn1` (centres unmarked) [drawing 238, 4-oxopentan-2-yl 2-{[({[2-(dimethylamino)ethyl](ethyl)carbamoyl}methyl)amino]methyl}pyridine-4-carboxylate], the IC50 is less than 1 µM.
The figure for `CCN(CCN(C)C)C(=O)CNCc1cc(C(=O)OC(C)CCNC(=O)C(F)(F)F)ccn1` (centres unmarked) [drawing 239, 4-(trifluoroacetamido)butan-2-yl 2-{[({[2-(dimethylamino)ethyl](ethyl)carbamoyl}methyl)amino]methyl}pyridin-4-carboxylate] is less than 1 µM; for `CCN(CCN(C)C)C(=O)CNCc1cc(C(=O)OC(C)CCN(C)C(=O)C(F)(F)F)ccn1` (centres unmarked) [drawing 240, 4-(2,2,2-trifluoro-N-methylacetamido)butan-2-yl 2-{[({[2-(dimethylamino)ethyl](ethyl)carbamoyl}methyl)amino]methyl}pyridine-4-carboxylate] it is less than 1 µM.
`CCOC(=O)c1ccnc(CNCC(=O)N(CC)CCN(C)C)c1` [drawing 241, ethyl 2-{[({[2-(dimethylamino)ethyl](ethyl)carbamoyl}methyl)amino]methyl}pyridine-4-carboxylate] gave an IC50 of less than 1 µM.
`C=CC(CCNC(=O)C(F)(F)F)OC(=O)c1ccnc(CNCC(=O)N(CC)CCN(C)C)c1` (centres unmarked) [drawing 242, 5-(trifluoroacetamido)pent-1-en-3-yl 2-{[({[2-(dimethylamino)ethyl](ethyl)carbamoyl}methyl)amino]methyl}pyridine-4-carboxylate] yielded an IC50 of less than 1 µM.
The molecule `C=CC(CCN(C)C(=O)C(F)(F)F)OC(=O)c1ccnc(CNCC(=O)N(CC)CCN(C)C)c1` (centres unmarked) [drawing 243, 5-(2,2,2-trifluoro-N-methylacetamido)pent-1-en-3-yl 2-{[({[2-(dimethylamino)ethyl](ethyl)carbamoyl}methyl)amino]methyl}pyridine-4-carboxylate] showed an IC50 of less than 1 µM.
In turn, `CCCCCCCCCCCCCCCC(=O)OCC(COC(=O)CCCCCCCCCCCCCCC)OC(=O)c1ccnc(CNCC(=O)N(CC)CCN(C)C)c1` [drawing 244, 2-(2-{[({[2-(dimethylamino)ethyl](ethyl)carbamoyl}methyl)amino]methyl}pyridine-4-carbonyloxy)-3-(hexadecanoyloxy)propyl hexadecanoate] gave an IC50 of less than 1 µM.
The result for `CCCCCCCCCCCCCCCC(=O)OCC(COC(=O)c1ccnc(CNCC(=O)N(CC)CCN(C)C)c1)OC(=O)CCCCCCCCCCCCCCC` (centres unmarked) [drawing 245, 1-(2-{[({[2-(dimethylamino)ethyl](ethyl)carbamoyl}methyl)amino]methyl}pyridine-4-carbonyloxy)-3-(hexadecanoyloxy)propan-2-yl hexadecanoate] reads less than 1 µM; that for `CCN(CCN(C)C)C(=O)CNCc1cc(C(=O)OC)ccn1` [drawing 246, methyl 2-{[({[2-(dimethylamino)ethyl](ethyl)carbamoyl}methyl)amino]methyl}pyridine-4-carboxylate], less than 1 µM; that for `CCN(CCN(C)C)C(=O)CNCc1cc(C(=O)N(C)S(C)(=O)=O)ccn1` [drawing 247, 2-{[({[2-(dimethylamino)ethyl](ethyl)carbamoyl}methyl)amino]methyl}-N-methanesulfonyl-N-methylpyridine-4-carboxamide], 1 to 50 µM.
`CCN(CCN(C)C)C(=O)CNCc1cc(C(=O)N2CCOC2=O)ccn1` [drawing 248, N-[2-(dimethylamino)ethyl]-N-ethyl-2-({[4-(2-oxo-1,3-oxazolidine-3-carbonyl)pyridin-2-yl]methyl}amino)acetamide] displayed an IC50 of 1 to 50 µM.
The figure for `CCN(CCN(C)C)C(=O)CNCc1cc(C(=O)OC(CCNC(=O)C(F)(F)F)CC(=O)OC(C)C)ccn1` (centres unmarked) [drawing 250, propan-2-yl 3-(2-{[({[2-(dimethylamino)ethyl](ethyl)carbamoyl}methyl)amino]methyl}pyridine-4-carbonyloxy)-5-(trifluoroacetamido)pentanoate] is less than 1 µM.
Take `CCN(CCN(C)C)C(=O)CNCc1cc(C(=O)OCC(F)(F)F)ccn1` [drawing 251, 2,2,2-trifluoroethyl 2-{[({[2-(dimethylamino)ethyl](ethyl)carbamoyl}methyl)amino]methyl}pyridine-4-carboxylate]: the IC50 was less than 1 µM.
As for `CCN(CCN(C)C)C(=O)CNCc1cc(C(=O)Nc2ncco2)ccn1` [drawing 252, 2-{[({[2-(dimethylamino)ethyl](ethyl)carbamoyl}methyl)amino]methyl}-N-(1,3-oxazol-2-yl)pyridine-4-carboxamide], the IC50 was in the range of 1 to 50 µM.
The figure for `CCN(CCN(C)C)C(=O)CNCc1cc(C(=O)Oc2c(OC(C)C)cccc2OC(C)C)ccn1` [drawing 253, 2,6-bis(propan-2-yloxy)phenyl 2-{[({[2-(dimethylamino)ethyl](ethyl)carbamoyl}methyl)amino]methyl}pyridine-4-carboxylate] is 1 to 50 µM.
Turning to `CCN(CCN(C)C)C(=O)CNCc1cc(C(=O)Nc2nccn2C)ccn1` [drawing 254, 2-{[({[2-(dimethylamino)ethyl](ethyl)carbamoyl}methyl)amino]methyl}-N-(1-methyl-1H-imidazol-2-yl)pyridine-4-carboxamide], the IC50 lay in the range of 1 to 50 µM.
Take `CCN(CCN(C)C)C(=O)CNCc1cc(C(=O)OCCF)ccn1` [drawing 255, 2-fluoroethyl 2-{[({[2-(dimethylamino)ethyl](ethyl)carbamoyl}methyl)amino]methyl}pyridine-4-carboxylate]: the concentration for half-maximal inhibition (IC50) was less than 1 µM.
Consider `CCN(CCN(C)C)C(=O)CNCc1cc(C(=O)OCC(F)F)ccn1` [drawing 256, 2,2-difluoroethyl 2-{[({[2-(dimethylamino)ethyl](ethyl)carbamoyl}methyl)amino]methyl}pyridine-4-carboxylate], for which the IC50 is less than 1 µM.
